# Experiments:
# [1] = Plasma ligand exposure after IM injection (LC/MS) and projected brain concentrations; format: in vivo, macaque monkeys
# Description: Plasma samples were collected in EDTA tubes at 0, 0.25, 0.50, 1, 2, 4, 8, 12, and 24 h after a bolus IM injection and stored at − 70C until further analysis by LC/MS (for further details see Hao et al. [2019]). For the lower dose of 0.1 mg/kg, IM, plasma samples were collected from three of the animals participating in the spatial working memory task at Yale University, at approximately 1.5 h after dosing (~ 30 min after completion of behavioral test session). Animals were acclimated to sitting freely in a customized chair and having one leg held for hair trimming (if necessary), wiping with 70% alcohol, and saphenous venopuncture using a BD Vacutainer tube inside a safety holder. For the 5 mg/kg, IM dose, plasma samples were collected in a separate study in three male adult macaque monkeys at Eli Lilly and Company, Indianapolis, IN. The collection and storage of samples followed the procedure described above, and analysis of D1 ligand levels was carried out at Eli Lilly and Company, Indianapolis, IN, USA, using liquid chromatography and tandem mass spectrometry.
# rhesus monkey = experiment: Spatial delayed response working memory task; format: in vivo, rhesus and one stumptail macaque; conditions: for Delay-dependent errors: 0.1 mg/kg; for Delay-dependent errors at short delays: 1.0 mg/kg
# Description: Sixteen rhesus and one stumptail macaque participated in the study (details provided below) that was performed at Yale University, New Haven CT, USA. Animals were used and cared for in full accordance with Yale University’s IACUC guidelines and polices in addition to all U.S. Federal policies and regulations. The monkeys were fed their normal diet each day, including appropriately nutritional biscuits and multiple fruits and vegetables for enrichment. Testing and any training occurred just before their main food course. This food consisted of biscuits, delivered each day, and all animals had full 24-h access to ad libitum water. Participation in cognitive testing was ensured by the enrichment of the environmental stimulation and the provision of the animals’ favorite food treats as rewards in the task, including yoghurt, raisins, almonds, grapes, fruit loops, and multiple other food items (Roberts et al [2010]).
# The circuitry involved in this response is almost exclusively “dorsal stream” involving dorsolateral prefrontal cortex, particularly Area 46, and the lateral intraparietal sulcus (Goldman-Rakic [1996]). For a full description of the task used here, see Roberts et al. ([2010]). Animals were tested in a sound-attenuated room incorporating a testing chamber. In this task one of several well locations is baited with food in view of the animal and the wells are then covered with identical plaques. An opaque shutter is then lowered for one of 5 variable delays and then raised to allow the animal to make a response to one of the well locations to retrieve the food. Each delay length was repeated 4 times in a semirandom distribution across the 20 trials in each testing session. Each animal was stabilized prior to commencing any administration by gradually incrementing the number of wells (starting at just 2) and the lengths of the delay. The 5 variable delay lengths were set at 0, 1, 2, 3, and 4 s multiplied by a factor “N.” Thus, N was incremented by 1 up to a maximum of 10 until the subject performed at 80% or more across 3 consecutive test sessions whereupon the number of wells was incremented by 1. This process was repeated for each individual until they reached stable performance (65–75% ± ≤ 2.5% correct). This normalized level of performance allows for the sensitive detection of any impairment or improvement produced by experimental conditions. For baseline data for this study, we took 7 or more consecutive data points that had been collected in previous weeks which fell within the stable limits for the test. For the total group of 17 animals participating in this study, the median well number was 4 (range 2–7) and the median N value was 3 (range 1–7). Animals were typically tested 2 to 3 days a week.
# DPTQ (free base, Eli Lilly & Co.) was prepared as described above for the spontaneous eye blink test. Animals (4 males and 6 females, mean age = 22.1 ± 1.7 years) were originally assigned to receive either vehicle or DPTQ 2.5 mg/kg IM in a semi-random design. One animal received vehicle but was not dosed with DPTQ. This same group of animals was later used in a repeated dosing study with DPTQ 2.5 mg/kg vs vehicle. After a protracted washout period of several months we tested the lower doses of 0.1 mg/kg and 1.0 mg/kg in ascending order. This group of 10 animals included 3 from the previous study (3 males, 7 females (including one aged stumptail macaque); average age = 22.6 ± 1.7 years). The youngest animal in this study was aged 17.3 years. None of the animals were naïve and had all been used in previous studies with other compounds. They were given an extensive washout of weeks or months prior to this study and were established to have normal baseline performance on the task. During the study, animals were washed out based on known PK properties (half-life) of this drug as well as the baseline performance of each individual animal. […]
# [2] = parameters: method as in Hao et al. [2019]; conditions: after systemic dosing; ref Hao et al. [2019]; cited from earlier work
structure (smiles),measurement,setting,value
C[C@H]1c2cccc(CC(C)(C)O)c2C[C@H](CO)N1C(=O)Cc1c(Cl)cccc1Cl [DPTQ],Estimated unbound ligand concentrations in the brain,"[1]; 0.1 mg/kg IM, 1.5 h after dosing",1 to 2 nM
same,Projected unbound brain concentration as multiple of cAMP EC50,"[1]; 5 mg/kg IM, 2 h post dosing, hD1 and monkey D1 cAMP assay",eightfold down to onefold
same,Plasma levels at 0.1 mg/kg IM relative to 5 mg/kg IM (times lower),[1]; 0.1 vs 5 mg/kg IM,about 50 ×
same,Plasma concentrations at late time points,[1]; after 12 or 24 h,negligible
same,Working memory performance over 2 weeks,"rhesus monkey; 0.1 mg/kg IM, n = 10, no diminution on day 3, p = 0.014",modest enhancement of working memory
same,Delay-dependent errors,"rhesus monkey; day 1, short (0, 1) N and long (3, 4) N delays",slight increase in errors
same,Delay-dependent errors,"rhesus monkey; day 5, particularly long delays",small but non-significant decrease in errors
same,Working memory performance over 2 weeks,"rhesus monkey; 1.0 mg/kg IM, n = 8, p = 0.006, strongest day 4 p < 0.0001",significant improvement in working memory
same,Delay-dependent errors at short delays,rhesus monkey; day 1,no reduction in errors
same,Delay-dependent errors at short delays,rhesus monkey; day 5,reduction
same,Working memory performance day 3,"rhesus monkey; 2.5 mg/kg IM on days 1 and 5, n = 6",non-significant dip
same,Working memory performance day 6,"rhesus monkey; 2.5 mg/kg IM on days 1 and 5, day after repeat dose",reduction in performance to baseline
same,Working memory performance days 8-14,"rhesus monkey; 2.5 mg/kg IM on days 1 and 5, days 8, 12 p < 0.05, days 10, 14 p < 0.01",enhancement
same,Working memory performance days 4 and 5,"rhesus monkey; 2.5 mg/kg IM on days 1 and 5, p < 0.01",rebound enhancement
same,"Working memory performance, acute effect","rhesus monkey; 2.5 mg/kg IM single dose, day 1, 1 h post injection, n = 9",No immediate acute effect
same,Diminution of performance,"rhesus monkey; 2.5 mg/kg IM single dose, day 2",10%
same,Mean performance score,"rhesus monkey; 2.5 mg/kg IM single dose, day 3, p = 0.025 vs baseline, baseline 65–75% correct",61.1
same,Mean performance score,"rhesus monkey; 2.5 mg/kg IM single dose, day 4, improvement days 4, 5, 6 p < 0.01",84.3
same,Working memory deficit on day 3,"rhesus monkey; 2.5 mg/kg day 1, vehicle day 5, n = 10, p = 0.278 vs baseline",small and did not achieve significance
same,Working memory performance days 4-12,"rhesus monkey; 2.5 mg/kg day 1, vehicle day 5, days 4, 8 p < 0.001, day 5 p < 0.0001, days 10, 12 p < 0.05",enhancement
same,Dose range over which procognitive effects were observed,rhesus monkey; 0.1 to 2.5 mg/kg IM,at least 25 fold
same,Acute effect on spatial working memory,"rhesus monkey; 1 h after injection, regardless of the dose administered",entirely null acute effect
same,Score on day 3 at 0.1 and 1.0 mg/kg compared with 2.5 mg/kg,"rhesus monkey; day 3, p < 0.01, p < 0.05 respectively",significantly higher score
same,Score on day 4 at 2.5 mg/kg compared with 0.1 mg/kg,rhesus monkey; day 4,significantly greater
same,Difference in scores attributable to dose,"rhesus monkey; day 5, 0.1, 1.0, 2.5 mg/kg",No difference
same,Brain penetration,[2],acceptable brain penetration
